Measured values: US5739127A, “2,4'-bridged bis-2,4-diaminoquinazolines” (Bayer Aktiengesellschaft, priority 1996, dated 1998)

Molecular target: apamine binding sites (apamine-sensitive potassium channels), bovine cerebral membrane
Experiment: Binding of 125I-apamine to bovine cerebral membrane
Conditions: 30 pM 125I-apamine, bovine (calf) hippocampus membranes, 200 μg membrane protein, 60 min on ice
Protocol: The compounds according to the invention are ligands for apamine-sensitive potassium channels. This can be shown by studying the affinity for apamine binding sites, e.g. in bovine cerebral membranes.
1) Binding of^125 I-apamine to bovine cerebral membrane
Calf brains were obtained from the local abattoir. The hippocampus was prepared on ice and a membrane suspension was made up by homogenization twice in buffer (100 mM Tris-HCl, KCl 5 mM, pH 7.4) and centrifugation at 43,000×g. In a total volume of 500 μl, the incubation mixture contained 200 μg of membrane protein, 30 pM ^125 I-apamine and test substances in the concentration range 1×10^-9 to 1×10^-4 M. The non-specific binding of ^125 I-apamine was determined in the presence of 1×10^-7 M unlabelled apamine.
After preincubation for 30 rain at room temperature (test substances and membrane homogenate), the samples were placed on ice for 10 min before the radioligand was added. The main incubation time was 60 min on ice. When the reaction time had elapsed, an excess of ice-cooled incubation buffer was added to each sample and the mixture was filtered with suction through cellulose acetate/nitrate membrane filters. The amount of bound ^125 I-apamine was measured with a gamma counter.

## NC(=O)C1CCCN(c2nc(N3CCC(CNc4nc(N5CCCC5)nc5ccccc45)CC3)nc3ccccc23)C1 (stereo not shown) [Example 5]
  Ki: 150 nM
